Data reported in patent US20150150878A1, “Methods For Inhibiting Viruses By Targeting Cathepsin-L Cleavage Sites In The Viruses' Glycoproteins” (priority 2012, published 2015).
Several values for one entry are separate records, joined by “and”; a condition that tells them apart may be missing. Equal values may be shown once. Where a name gives a salt, the structure may show the parent alone. Read-outs that look alike come from different tables or passages of the source. Residues, ends and D or L forms follow the SMILES beside them. *: point of attachment. Cbz = O=C(OCc1ccccc1)*

Legend:
cathepsin L [1] = target: T1, cathepsin L (Homo sapiens, UniProt P07711); assay type: biochemical; parameters: human cathepsin L purified from human liver (Sigma Aldrich); purchased Sigma Aldrich; host or cells: human liver (tissue-purified)
T1 sequence (P07711 114-333): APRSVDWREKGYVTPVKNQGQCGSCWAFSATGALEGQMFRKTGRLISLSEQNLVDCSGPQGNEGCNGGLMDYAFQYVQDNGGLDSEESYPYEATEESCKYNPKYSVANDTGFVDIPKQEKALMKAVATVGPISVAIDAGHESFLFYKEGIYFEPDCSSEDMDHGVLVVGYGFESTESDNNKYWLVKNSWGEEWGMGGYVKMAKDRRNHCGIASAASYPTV

cathepsin L [2] = target: T1, cathepsin L; assay type: biochemical; parameters: human cathepsin L purified from human liver (Sigma Aldrich); purchased Sigma Aldrich; host or cells: human liver (tissue-purified); remark: listed apart in the source
cathepsin L [3] = target: T1, cathepsin L; assay type: biochemical; parameters: human cathepsin L purified from human liver (Sigma Aldrich); purchased Sigma Aldrich; host or cells: human liver (tissue-purified); remark: listed apart in the source
[4] = system: SARS-CoV-S pseudotyped virus; experiment: microbe, parasite or virus in culture; assay type: cell-based; details: for inhibition at 10 µM: read-out: inhibition of SARS-CoV pseudotyped virus entry; for IC50: read-out: IC50 against SARS-CoV-S pseudotyped virus
cathepsin L [5] = target: T1, cathepsin L; assay type: biochemical; parameters: human cathepsin L purified from human liver (Sigma Aldrich); purchased Sigma Aldrich; host or cells: human liver (tissue-purified); remark: listed apart in the source
cathepsin L [6] = target: T1, cathepsin L; assay type: biochemical; parameters: human cathepsin L purified from human liver (Sigma Aldrich); purchased Sigma Aldrich; host or cells: human liver (tissue-purified); remark: listed apart in the source
[7] = system: EBOV-GP pseudotyped virus; experiment: microbe, parasite or virus in culture; assay type: cell-based, Ebola virus; details: for inhibition at 10 µM: read-out: inhibition of EBOV pseudotyped virus entry; for IC50: read-out: IC50 against EBOV pseudotyped virus
[8] = system: SARS-CoV pseudotyped virus; assay type: cell-based
cathepsin L [9] = target: T1, cathepsin L; assay type: biochemical
cathepsin L [10] = target: T1, cathepsin L; assay type: biochemical; remark: listed apart in the source
[11] = Severe acute respiratory syndrome coronavirus, 72 h

SMILES | Inhibition of cleavage of Nipah peptide by Cathepsin-L (cathepsin L [1]) [%] | percentage inhibition against Nipah peptide (cathepsin L [1]) [%] | Inhibition of cleavage of NPY peptide by Cathepsin-L (cathepsin L [2]) [%] | percentage inhibition against human Pro-NPY peptide (cathepsin L [2]) [%] | Inhibition of cleavage of SARS peptide by Cathepsin-L (cathepsin L [3]) [%] | percentage inhibition against SARS peptide (cathepsin L [3]) [%] | inhibition at 10 µM [4, 11] [%] | Inhibition of cleavage of Hendra peptide by Cathepsin-L (cathepsin L [5]) [%] | percentage inhibition against Hendra peptide (cathepsin L [5]) [%] | Inhibition of cleavage of Ebola peptide by Cathepsin-L (cathepsin L [6]) [%] | percentage inhibition against Ebola peptide (cathepsin L [6]) [%] | inhibition at 10 µM ([7]; Zaire ebolavirus, 72 h) [%] | cytotoxic effect on 293FT cells (293FT cells) | inhibition of SARS-CoV pseudotyped virus entry [8] | also measured
O=C(Nc1cccc(C(F)(F)F)c1)Nc1ccc(Cl)c(Cl)c1 [Compound 5182554, 1-(3,4-dichlorophenyl)-3-(3-(trifluoromethyl)phenyl)urea] | 44 | 56.5 | 7.4 | 14.8 | 78.1 | 72.6 | 49.3 | 49.4 | 50.9 | 31 | 77 | 60.5 | toxic | – | cytotoxicity (293FT cells; human): 20-100%
COC(=O)CN(C#N)c1nc(NC(C)C)nc(NC(C)C)n1 [Compound 5705213, methyl 2-(N-(4,6-bis(isopropylamino)-1,3,5-triazin-2-yl)cyanamido)acetate] | 76.3 | 90.7 | 18 | 20 | 79.8 | 90.1 | 64.7 | 84.3 | 94.2 | 42 | 81.3 | 39.8 | – | 50% and 60% | inhibition of Cat L mediated cleavage of SARS-CoV-S-flag protein (cathepsin L [9]): dose dependent inhibition; change of Vmax in presence of the inhibitor (cathepsin L [10]): decrease; mechanism of inhibition (cathepsin L [10]): mixed inhibitor; IC50 [4, 11]: 9 µM; IC50 ([7]; Zaire ebolavirus, 72 h): 15 µM; cell viability (293FT cells; human): over 80%
CCNc1nc(NC(C)(C)C)nc(N(C#N)CC(=O)OC)n1 [Compound 7402683, methyl 2-(N-(4-(tert-butylamino)-6-(ethylamino)-1,3,5-triazin-2-yl)cyanamido)acetate] | – | – | – | – | – | – | – | – | – | – | – | – | no significant cytotoxicity | – | inhibition of Cat L mediated cleavage of SARS-CoV-S-flag protein (cathepsin L [9]): dose dependent inhibition; inhibition of SARS-CoV pseudotyped virus entry ([4]; 10 µM): 68.3%; IC50 [4]: 6 µM; inhibition of EBOV pseudotyped virus entry ([7]; 10 µM): 53.3%; IC50 [7]: 10 µM
N#Cc1ccc(NC(=O)Nc2ccc(Cl)cc2)cc1 [Compound 7910528, 1-(4-chlorophenyl)-3-(4-cyanophenyl)urea] | 57.8 | 57.8 | 6.5 | 6.5 | 56.5 | 56.5 | 30.3 | 12.1 | 12.1 | 33.4 | 35 | 23.3 | – | – | –
O=c1[nH]c2ccc(S(=O)(=O)Nc3ccc(Cl)c(Cl)c3)cc2o1 [Compound 7914021, N-(3,4-dichlorophenyl)-2-oxo-2,3-dihydrobenzo[d]oxazole-6-sulfonamide] | 53.6 | 82 | 13.1 | 21.9 | 71.7 | 85.2 | 27.1 | 25.4 | 52.2 | 36 | 83.8 | 51.5 | toxic | – | cytotoxicity (293FT cells; human): 20-100%
O=C[C@H](Cc1ccc(O)cc1)NC(=O)[C@H](Cc1ccccc1)NC(=O)OCc1ccccc1 [cathepsin L inhibitor, Z-Phe-Tyr-CHO] (Cbz-Phe-Tyr-aldehyde) | – | – | – | – | – | – | – | – | – | – | – | – | – | 60% and 58% | –
CN(C)C(=O)COC(=O)Cc1ccc(OC(=O)c2ccc(NC(=N)N)cc2)cc1 [protease inhibitor, Camostat mesylate] | – | – | – | – | – | – | – | – | – | – | – | – | – | 70% | –
